One test deals with T1, IDO1 (Homo sapiens, UniProt P14902).
T1 construct: No. 20160706
The test is described as follows: IDO1 enzymatic assay. In kind it is biochemical. To be noted: for inhibition at 10 µM: Tables 2 and 3, read-out: IDO1 % Inhibition at 10 μM (converted); for IC50: mean ± SD of at least two independent assays. As to the method: (1) Prepare 100× compound of the final desired highest inhibitor concentration in reaction by 100% DMSO. For example, if compounds test at 10 μM, then prepare 1 mM of compound solution in this step. Then dilute compound with DMSO in 3-fold mode to obtain different concentrations. Mark as source plate. (2) Add 100 μL of 100% DMSO to column 1 and column 12 for background control and no compound high control respectively.
Transfer 2 μL of each well from the 96-well source plate to a 96-well assay plate.
• (3) Enzyme Reaction • Prepare 2× enzyme solution. Add IDO-1 in assay buffer. • Prepare 2× substrate solution. Add L-tryptophan, ascorbate, methylene blue, catalase in the assay buffer. • Assay plate already contains 2 μL of compound in 100% DMSO. • Transfer 2× enzyme solution to the assay plate. Add 100 μL of 2× enzyme solution to each well of the 96-well assay plate. • Incubate at room temperature for 10 min. • Transfer […] to each well of the 96-well assay plate. • Read OD321 kinetically by Spectramax (Molecular Devices, LLC, San Jose, CA, USA). • (4) Curve Fitting • Copy data from Spectramax program. Percent inhibition = (max-conversion)/(max − min) × 100. “max” stands for high control; “min” stands for low control. • Fit the data in XL-Fit to obtain IC50 values. Equation used is: Y = Bottom + (Top − Bottom)/(1 + 10^((LogIC50 − X) × Hill Slope)

A further test concerns the target T2, HDAC1 (Homo sapiens, UniProt Q13547).
T2 construct: purchased BPS Bioscience Inc. 50051
Description: HDAC enzymatic assay. It is filed as biochemical. To be noted: mean ± SD of at least two independent assays. As to the method:
• (1) Prepare 1× assay buffer (modified Tris Buffer). • (2) Compound serial dilution: Transfer compounds to assay plate by Echo in 100% DMSO. The final fraction of DMSO is 1%. • (3) Prepare enzyme solution in 1× assay buffer. • (4) Add trypsin and Ac-peptide substrate in 1× assay buffer to make the substrate solution. • (5) Transfer 15 μL of enzyme solution to assay plate or for low control transfer 15 μL of 1× assay buffer. • (6) Incubate at room temperature for 15 min. • (7) Add 10 μL of substrate solution to each well to start reaction. • (8) Incubate at room temperature for 60 min. • (9) Read the plate on Synergy MX with excitation at 355 nm and emission at 460 nm. • (10) Curve fitting: Fit the data in Excel to obtain inhibition values using Equation (1).
Inh% = (Max − Signal)/(Max − Min) × 100(1)
Fit the data in XL-Fit to obtain IC50 values using Equation (2); Y = Bottom + (Top − Bottom)/(1 + 10^((LogIC50 − X) × Hill Slope))(2)
Y is %inhibition and X is compound concentration.

In another test the test system is A549 cell line. Description: Anti-proliferation assay in A549 cell line (CellTiter-Glo). It is filed as cell-based. The conditions noted are these: Homo sapiens; A549 cells, 48 h, CTG assay. As to the method:
Cell viability was measured by the CellTiter-Glo Luminescent (CTG) assay. A549 cells (ATCC, Cat. No.CCL-185) were seeded (2000 cells/well) in 96-well plates and cells were left to incubate at 37 °C for 24 h. After 24 h, prepare compounds with 5-fold dilution in DMSO to the compound plate (200-fold of the final concentration) and transfer 5 μL from the compound plate to 95 μL intermediate medium in the intermediate plate (10-fold of the final concentration). Then transfer 10 μL from the intermediate plate to the cell plates. The final DMSO is 0.5%. After continuing to incubate for 48 h, add 50 μL CTG reagent to each well and read luminescence according to CTG product manual.
On the technique in general: Cellular ATP, detected with luciferase, serves as a proxy for viable cell number.

T1 sequence (P14902 whole entry): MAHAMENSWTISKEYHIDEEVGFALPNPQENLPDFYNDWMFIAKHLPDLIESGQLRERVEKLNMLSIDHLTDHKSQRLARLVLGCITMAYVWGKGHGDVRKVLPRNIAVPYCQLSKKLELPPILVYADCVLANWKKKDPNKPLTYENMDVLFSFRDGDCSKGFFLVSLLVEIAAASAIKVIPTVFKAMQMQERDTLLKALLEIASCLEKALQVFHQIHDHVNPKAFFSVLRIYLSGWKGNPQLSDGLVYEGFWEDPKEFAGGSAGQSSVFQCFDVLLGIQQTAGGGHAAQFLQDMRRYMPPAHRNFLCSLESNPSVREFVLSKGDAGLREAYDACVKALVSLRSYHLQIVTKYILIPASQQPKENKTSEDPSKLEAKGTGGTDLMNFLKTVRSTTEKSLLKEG
T2 sequence (Q13547 whole entry): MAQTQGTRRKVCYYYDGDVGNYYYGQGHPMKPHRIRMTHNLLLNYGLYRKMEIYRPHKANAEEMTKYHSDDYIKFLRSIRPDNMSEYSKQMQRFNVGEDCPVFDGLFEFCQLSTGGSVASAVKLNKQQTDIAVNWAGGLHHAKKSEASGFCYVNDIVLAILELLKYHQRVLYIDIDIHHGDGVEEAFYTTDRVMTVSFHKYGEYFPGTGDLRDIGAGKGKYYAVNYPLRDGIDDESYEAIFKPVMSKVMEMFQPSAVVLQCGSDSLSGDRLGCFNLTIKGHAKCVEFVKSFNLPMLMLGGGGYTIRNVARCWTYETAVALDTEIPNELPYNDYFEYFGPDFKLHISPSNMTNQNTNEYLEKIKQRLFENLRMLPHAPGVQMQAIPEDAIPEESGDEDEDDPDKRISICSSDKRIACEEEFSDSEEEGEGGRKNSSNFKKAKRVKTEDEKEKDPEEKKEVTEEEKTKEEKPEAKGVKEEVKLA

As for `Cc1ccc2c(c1CCC(=O)Nc1ccc(F)cc1N)C(=O)C(=O)C(C(C)C)=C2` [Compound 27c, N-(2-amino-4-fluorophenyl)-3-(6-isopropyl-2-methyl-7,8-dioxo-7,8-dihydronaphthalen-1-yl)propanamide], on IDO1, the inhibition (usually the percentage by which the read-out fell short of the control) at 10 µM is 56%. The results for the IC50 on HDAC1 and in the test on A549 cell line were greater than 100 µM and greater than 20 µM, respectively.
Regarding `Cc1ccc2c(c1CCC(=O)NCCC(=O)Nc1ccccc1N)C(=O)C(=O)C(C(C)C)=C2` [Compound 33a, N-(2-aminophenyl)-3-(3-(6-isopropyl-2-methyl-7,8-dioxo-7,8-dihydronaphthalen-1-yl)propanamido)-propanamide], at IDO1, the inhibition at 10 µM was 89%. Besides, the values for the IC50 at HDAC1 and with A549 cell line were greater than 100 µM and greater than 20 µM, respectively.
With `Cc1ccc2c(c1CCC(=O)NCCCC(=O)Nc1ccccc1N)C(=O)C(=O)C(C(C)C)=C2` [Compound 33b, N-(2-Aminophenyl)-4-(3-(6-isopropyl-2-methyl-7,8-dioxo-7,8-dihydronaphthalen-1-yl)propanamido)-butanamide], on IDO1, the inhibition at 10 µM is 80%. Further, the concentration for half-maximal inhibition (IC50) (commonly the concentration at which inhibition is half-maximal) against IDO1 was determined as 0.58 ± 0.11 µM; at HDAC1, 34.9 ± 0.75 µM; with A549 cell line, 19.1 µM.
`Cc1ccc2c(c1CCC(=O)NCCCCC(=O)Nc1ccccc1N)C(=O)C(=O)C(C(C)C)=C2` [Compound 33c, N-(2-Aminophenyl)-5-(3-(6-isopropyl-2-methyl-7,8-dioxo-7,8-dihydronaphthalen-1-yl)propanamido)-pentanamide]: at IDO1, the inhibition at 10 µM is 90%. Also, the IC50 on IDO1 was 0.55 ± 0.02 µM; at HDAC1, 39.5 ± 0.74 µM; with A549 cell line, greater than 20 µM.
On to `Cc1ccc2c(c1CCC(=O)NCCCCCC(=O)Nc1ccccc1N)C(=O)C(=O)C(C(C)C)=C2` [Compound 33d, N-(2-Aminophenyl)-6-(3-(6-isopropyl-2-methyl-7,8-dioxo-7,8-dihydronaphthalen-1-yl)propanamido) hexanamide], for which the inhibition at 10 µM at IDO1 is 82%. In addition, the figures for the IC50 against IDO1, on HDAC1 and with A549 cell line were 0.71 ± 0.03 µM, 0.46 ± 0.07 µM and greater than 20 µM, respectively.

Source of the values: PMC7582476, “Discovery of Novel Indoleamine 2,3-Dioxygenase 1 (IDO1) and Histone Deacetylase 1 (HDAC1) Dual Inhibitors Derived from the Natural Product Saprorthoquinone” (Molecules, 2020).
